According to PMC11218997, “Human cytomegalovirus deploys molecular mimicry to recruit VPS4A to sites of virus assembly” (PLOS Pathogens, 2024):
Where a SMILES comes first, the peptide text is derived from it.

Experiments:
[1] = target: T1, human VPS4 MIT domain (residues 1–84) (Homo sapiens, UniProt Q9UN37); assay: Isothermal titration calorimetry, titrant into VPS4A MIT domain; type: binding; conditions: ITC, 25°C; for -TΔS / N (stoichiometry) / ΔG / ΔH: n = 2–4
T1 construct: The MIT domain (residues 1–84) of human VPS4A (UniProt Q9UN37); GST with human rhinovirus 3C cleavage site (N, cleaved yes); made in house; host or cells: Escherichia coli T7 Express lysY/Iq
T1 sequence (Q9UN37 1-84): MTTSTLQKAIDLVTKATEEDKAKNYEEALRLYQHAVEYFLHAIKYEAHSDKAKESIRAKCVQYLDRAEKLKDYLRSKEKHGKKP
Procedure: Proteins were expressed in Escherichia coli T7 Express lysY/I^q cells (New England Biolabs) in 2×TY medium at 37°C to an OD600 of 0.8–1.2 before inducing protein expression by addition of 0.4 mM isopropyl β-D-thiogalactopyranoside (IPTG). Expression of GST-tagged pUL71 truncations was induced at 37°C for 3 h, whereas expression of GST-VPS4A MIT domain was induced at 22°C for 16 h. Cells were resuspended at 4°C in GSH lysis buffer (20 mM Tris pH 7.5, 300 mM NaCl, 0.5 mM MgCl2, 1.4 mM β-mercaptoethanol, 0.05% TWEEN-20) supplemented with 200–400 U bovine DNase I (Merck) and 200 μL EDTA-free protease inhibitor cocktail (Merck) before lysis using a TS series cell disruptor (Constant Systems) at 24 kpsi. Lysates were cleared by centrifugation (40,000×g, 30 min, 4°C) and incubated with glutathione Sepharose 4B (Cytiva) for 1 h at 4°C before extensive washing (≥ 20 column volumes) with GSH wash buffer (20 mM Tris pH 7.5, 300 mM NaCl, 1 mM DTT) and elution using wash buffer supplemented with 25 mM reduced L-glutathione. GST-tagged pUL71 truncations were subjected to size-exclusion chromatography (SEC) using a Superdex 200 16/600 column (Cytiva) equilibrated in GSH wash buffer. For GST-VPS4A MIT domain, the GST tag was removed by supplementing the pooled SEC fractions containing the protein of interest with 0.5 mM EDTA and incubating overnight at 4°C with 50 μg of GST-tagged human rhinovirus 3C protease. Free GST and uncleaved GST-VPS4A MIT domain were captured using glutathione Sepharose and the cleaved complex was subjected to SEC using an S75 10/300 GL column (Cytiva) equilibrated in 50 mM HEPES pH 8, 100 mM NaCl, 0.5 mM Tris(2-carboxyethyl)phosphine (TCEP).
Where necessary, proteins were exchanged into ITC buffer (50 mM HEPES pH 8, 100 mM NaCl, 0.5 mM TCEP) by SEC using Superdex 200 (GST-tagged titrants) or 75 (VPS4 MIT domain) 10/300 GL columns (Cytiva), or by extensive dialysis using tubing with a 3.5 kDa molecular weight cut-off (Pierce). Protein concentrations were estimated from A280 using extinction coefficients calculated from the protein sequence. Peptides encoding residues 166–181 of human CHMP6 or various truncations of HCMV pUL71 were purchased from Genscript at >95% purity and the dry peptides were resuspended in ITC buffer to the desired concentration. ITC experiments were performed at 25°C using an MicroCal PEAQ-ITC automated calorimeter (Malvern Panalytical). Titrants (GST-pUL71, GST-CHMP6 or peptides) were titrated into VPS4A MIT domain using either 19×2 μL or 12×3 μL injections (S1 Table). Data were analysed using the MicroCal PEAQ-ITC analysis software (Malvern Panalytical) and fitted using a one-site binding model.
S1 Table. Thermodynamic properties of the interactions with VPS4 MIT domain. As quantitated by isothermal titration calorimetry (ITC). Data for independent experiments are shown. For all, the cell contained human VPS4 MIT domain (residues 1-84) and pUL71 is from HCMV unless stated otherwise. –, no binding detected.

[2] = target: VPS4A MIT domain (residues 1–84) (human) (UniProt Q9UN37); assay: ITC; titrants (GST-pUL71, GST-CHMP6 or peptides) titrated into VPS4A MIT domain in the cell; 25°C; 50 mM HEPES pH 8, 100 mM NaCl, 0.5 mM TCEP; 19×2 μL or 12×3 μL injections; one-site binding model
[3] = target: yeast Vps4; conditions: reported; cited from earlier work

CC[C@H](C)[C@H](NC(=O)[C@H](CCC(N)=O)NC(=O)[C@@H](N)CCC(=O)O)C(=O)N[C@@H](CCC(=O)O)C(=O)N[C@@H](CC(C)C)C(=O)N1CCC[C@H]1C(=O)N[C@@H](CCC(=O)O)C(=O)N[C@H](C(=O)N1CCC[C@H]1C(=O)N[C@@H](CO)C(=O)N[C@@H](CCC(=O)O)C(=O)N1CCC[C@H]1C(=O)N[C@@H](CC(C)C)C(=O)N1CCC[C@H]1C(=O)N[C@@H](CCC(=O)O)C(=O)N[C@@H](CCCCN)C(=O)O)C(C)C [CHMP6 peptide] (H-EQIELPEVPSEPLPEK-OH; N-terminus and C-terminus assumed)
-TΔS ([1]; pH 8, mean ± SD): -5.52 ± 0.58 kcal/mol
N (stoichiometry) ([1]; pH 8, mean ± SD): 1.02 ± 0.17
ΔG ([1]; pH 8, mean ± SD): -6.85 ± 0.38 kcal/mol
ΔH ([1]; pH 8, mean ± SD): -1.33 ± 0.51 kcal/mol
-T∆S ([1]; replicate 1, pH 8): -6.36 kcal/mol
N (sites) ([1]; replicate 1, pH 8): 1
∆G ([1]; replicate 1, pH 8): -7.2 kcal/mol
∆H ([1]; replicate 1, pH 8): -0.844 kcal/mol
-T∆S ([1]; replicate 2, pH 8): -5.11 kcal/mol
N (sites) ([1]; replicate 2, pH 8): 0.79
∆G ([1]; replicate 2, pH 8): -7.15 kcal/mol
∆H ([1]; replicate 2, pH 8): -2.04 kcal/mol
-T∆S ([1]; replicate 3, pH 8): -5.14 kcal/mol
N (sites) ([1]; replicate 3, pH 8): 1.1
∆G ([1]; replicate 3, pH 8): -6.46 kcal/mol
∆H ([1]; replicate 3, pH 8): -1.32 kcal/mol
-T∆S ([1]; replicate 4, pH 8): -5.46 kcal/mol
N (sites) ([1]; replicate 4, pH 8): 1.17
∆G ([1]; replicate 4, pH 8): -6.57 kcal/mol
∆H ([1]; replicate 4, pH 8): -1.1 kcal/mol

CC[C@H](C)[C@H](NC(=O)[C@@H](N)CCC(=O)O)C(=O)N[C@@H](CC(=O)O)C(=O)N1CCC[C@H]1C(=O)N[C@@H](CC(C)C)C(=O)N[C@@H](CC(C)C)C(=O)N[C@@H](Cc1c[nH]cn1)C(=O)N[C@@H](CCC(N)=O)C(=O)N[C@@H](CCC(=O)O)C(=O)N[C@H](C(=O)NCC(=O)N[C@@H](CC(C)C)C(=O)N[C@@H](Cc1ccc(O)cc1)C(=O)N[C@@H](CCC(N)=O)C(=O)N[C@@H](C)C(=O)N[C@@H](CC(C)C)C(=O)N1CCC[C@H]1C(=O)N[C@@H](CC(N)=O)C(=O)N[C@@H](C)C(=O)N[C@H](C(=O)N[C@H](C(=O)N[C@@H](CCC(=O)O)C(=O)N[C@@H](C)C(=O)N1CCC[C@H]1C(=O)N[C@@H](CO)C(=O)N[C@@H](CCC(=O)O)C(=O)O)[C@@H](C)O)C(C)C)[C@@H](C)O [HHV6 pUL71 peptide] (H-EIDPLLHQETGLYQALPNAVTEAPSE-OH; N-terminus and C-terminus assumed)
-TΔS ([1]; pH 8, mean ± SD): 1.01 ± 1.62 kcal/mol
N (stoichiometry) ([1]; pH 8, mean ± SD): 1.18 ± 0.03
ΔG ([1]; pH 8, mean ± SD): -6.16 ± 0.11 kcal/mol
ΔH ([1]; pH 8, mean ± SD): -7.17 ± 1.52 kcal/mol
-T∆S ([1]; replicate 1, pH 8): -0.117 kcal/mol
N (sites) ([1]; replicate 1, pH 8): 1.16
∆G ([1]; replicate 1, pH 8): -6.26 kcal/mol
∆H ([1]; replicate 1, pH 8): -6.14 kcal/mol
-T∆S ([1]; replicate 2, pH 8): 0.27 kcal/mol
N (sites) ([1]; replicate 2, pH 8): 1.22
∆G ([1]; replicate 2, pH 8): -6.18 kcal/mol
∆H ([1]; replicate 2, pH 8): -6.45 kcal/mol
-T∆S ([1]; replicate 3, pH 8): 2.87 kcal/mol
N (sites) ([1]; replicate 3, pH 8): 1.17
∆G ([1]; replicate 3, pH 8): -6.04 kcal/mol
∆H ([1]; replicate 3, pH 8): -8.91 kcal/mol

CC[C@H](C)[C@H](NC(=O)[C@H](CCC(=O)O)NC(=O)[C@H](CCCNC(=N)N)NC(=O)[C@H](CCC(=O)O)NC(=O)[C@H](Cc1c[nH]cn1)NC(=O)[C@H](CC(N)=O)NC(=O)[C@@H](NC(=O)[C@@H]1CCCN1)[C@@H](C)O)C(=O)N[C@@H](CC(C)C)C(=O)N[C@@H](CC(=O)O)C(=O)N[C@@H](CC(C)C)C(=O)N[C@@H](CCSC)C(=O)N[C@@H](CCCNC(=N)N)C(=O)N[C@@H](Cc1c[nH]cn1)C(=O)N[C@@H](CO)C(=O)N1CCC[C@H]1C(=O)N[C@@H](CC(=O)O)C(=O)N[C@H](C(=O)N1CCC[C@H]1C(=O)N[C@@H](CCCNC(=N)N)C(=O)N[C@@H](CCC(=O)O)C(=O)N[C@@H](C)C(=O)N[C@H](C(=O)N[C@@H](CCSC)C(=O)N[C@@H](CO)C(=O)N1CCC[C@H]1C(=O)O)C(C)C)C(C)C [pUL71 (300–325) peptide] (H-PTNHEREILDLMRHSPDVPREAVMSP-OH)
Kd ([1]; 50 mM HEPES pH 8, 100 mM NaCl, 0.5 mM TCEP, one-site model, mean ± SD, n = 2–4 independent experiments): 5.59 ± 0.34 µM

CHMP6 MIM2 peptide (from UniProt Q96FZ7 166-181)
Kd [2]: 11.2 µM
dH [2]: -1.33 kcal/mol
stoichiometry N [2]: 1.02

GST-CHMP6: GST-tagged CHMP6 MIM2 motif (residues 168–181)
-TΔS ([1]; pH 8, mean ± SD): -4.81 ± 0.62 kcal/mol
ΔG ([1]; pH 8, mean ± SD): -7.18 ± 0.12 kcal/mol
-T∆S ([1]; replicate 1, pH 8): -5.25 kcal/mol
Kd ([1]; replicate 1, pH 8): 4.76 µM
N (sites) ([1]; replicate 1, pH 8): 0.786
∆G ([1]; replicate 1, pH 8): -7.26 kcal/mol
∆H ([1]; replicate 1, pH 8): -2.02 kcal/mol
-T∆S ([1]; replicate 2, pH 8): -4.37 kcal/mol
Kd ([1]; replicate 2, pH 8): 6.32 µM
N (sites) ([1]; replicate 2, pH 8): 0.894
∆G ([1]; replicate 2, pH 8): -7.09 kcal/mol
∆H ([1]; replicate 2, pH 8): -2.72 kcal/mol

GST-pUL71 (283–336) (domain or fragment)
Kd [2]: 3.02 µM
dH [2]: -10.1 kcal/mol
stoichiometry N [2]: 0.91

GST-pUL71 (300–325) (domain or fragment)
Kd [2]: 2.25 µM
dH [2]: -6.66 kcal/mol
stoichiometry N [2]: 1.22

GST-pUL71 (300–361) (domain or fragment)
Kd [2]: 2.98 µM
dH [2]: -10.1 kcal/mol
stoichiometry N [2]: 0.87

GST-pUL71(283–361) (domain or fragment)
Kd [2]: 2.84 µM
dH [2]: -9.05 kcal/mol
stoichiometry N [2]: 1

HHV6 pU44 vMIM2 peptide (residues 174–199) (from UniProt A0A140AK71 174-199)
Kd [2]: 30.9 µM
dH [2]: -7.17 kcal/mol
stoichiometry N [2]: 1.18

pUL71 (300–325) peptide
dH [2]: -6.22 kcal/mol
stoichiometry N [2]: 1.38

B1: Vps20: the yeast CHMP6 homologue (protein, UniProt Q04272 2-221, looked up)
Vacuolar protein …: GQKSSKVHITKTDRAILEVKRSKDEIHKFTRRTDNLILVEKSQLKDLIRKNPENYKSNMKVRFLLKRIHYQEHLLQQASDQLINLENMVSTLEFKMVEKQFINGLKNGNEILKKLNKEFSNVDELMDDVQDQIAYQNEINETLSRSLVGTSNYEDDLDKELDALESELNPEKMNNAKVANMPSTEGLPSLPQGEQTEQKEREEFATEERSDTKEPLALLS
Kd [3]: 188 µM

B2: Vfa1: yeast protein Vfa1 that is proposed to positively regulate Vps4 activity (protein, UniProt P40080 1-203, looked up)
VPS4-associated protein 1: MINEYVARKVALKDMQPCAICSKPSTTVLYNASGPDWLYTCEIHLQDNPQFVIPLYSTEYNEAVAQLKLVKGKMDSLTSAQTQLGSWDGWVTKIFSKKEKETNNSKDPDPTTTDSTDTSPQAKNDAEILSETKKQYSKILDKVTELQRKNRKYELAKIMFESRLLRKRTEQVNRERYLKEQENYSNTDPEELLRKHVFPSVPK
Kd [3]: 1.8 µM
fold tighter binding to Vps4 than Vps20 [3]: approximately 100 fold
